Where only a bound is given, the exact number is not on record here.

In this test the target is T1, human TREM2 (Homo sapiens, UniProt Q9NZC2).
T1 construct: expressed in transfected cells; host or cells: HEK293T-hTREM2 cells (HEK cell line expressing human TREM2 and DAP12)
T1 sequence (Q9NZC2 19-230): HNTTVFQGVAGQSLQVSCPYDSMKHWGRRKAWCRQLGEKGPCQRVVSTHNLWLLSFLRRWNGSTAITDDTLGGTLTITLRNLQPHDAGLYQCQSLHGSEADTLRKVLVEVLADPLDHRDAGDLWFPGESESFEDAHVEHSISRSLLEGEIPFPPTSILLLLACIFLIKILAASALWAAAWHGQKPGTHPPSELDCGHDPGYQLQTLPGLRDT
T1 sequence (O43914 22-113 partner): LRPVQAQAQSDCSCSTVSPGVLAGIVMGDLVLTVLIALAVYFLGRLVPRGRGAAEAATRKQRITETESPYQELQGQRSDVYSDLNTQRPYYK
Description: TREM2 agonist potency by cellular phosphorylation of Syk (AlphaLisa) in HEK293T-hTREM2 cells expressing human TREM2 and DAP12. In kind it is cell-based. Conditions: HEK293 cells expressing hTREM2 and DAP12; 45 minutes at room temperature; Syk phosphorylation, AlphaLisa; read-out: hTREM2 EC50. The procedure: In vitro Measurement of Triggering Receptor Expressed on Myeloid Cells 2 activity using cellular phosphorylation of Spleen Tyrosine Kinase (“Syk”) Assays
Measurement of TREM2 agonist potency was done using a HEK cell line expressing human TREM2 and DAP12 (HEK293T-hTREM2 cells). Binding of small molecules to, and activation of, TREM2 increases the phosphorylation of Syk. The resultant levels of Syk phosphorylation are measured using a commercial AlphaLisa reagent kit. To perform the assay, HEK-hTREM2 cells were plated at 14,000 cells per well in a 384 well plate, in 25 μL of complete growth media and incubated at 37° C., 5% CO2 for 20-24 hours.
Prior to the assay, test compounds were diluted in the 384 well plates in assay buffer and allowed to equilibrate for 30 minutes. Growth media was removed from cell plates by inversion on blotting paper, and 25 μL of test articles in assay buffer was added to cells. Cells were incubated for 45 minutes at room temperature. After 45 minutes, assay buffer was removed and 10 μL of lysis buffer was added. Plates were shaken for 20 minutes at 350 RPM at room temperature. After complete lysis, AlphaLisa reagents were added to the lysate, and fluourescence intensity was measured using a Perkin Elmer Envision plate reader. Intensities were used to generate a standard curve, and % activation was calculated. Curve fitting was performed using Prism v9 software, log(agonist) vs response—variable slope (four parameters), and EC50s were calculated from the curve fit.
The results presented in Table B have been generated with the in vitro assay described above. This assay may be used to test any of the compounds described herein to assess and characterize a compound's ability to act as an agonist of TREM2.
(Bead proximity is the source of the signal in Alpha formats.)
Consider `CO[C@H]1CN(c2nc(-c3ccc(F)cc3F)c3nc(C)c(C)nc3n2)C[C@@H]1c1cn(C2CC2)nn1` (stereo in doubt) [Example 134, 2-[3-(1-cyclopropyl-triazol-4-yl)-4-methoxy-pyrrolidin-1-yl]-4-(2,4-difluorophenyl)-6,7-dimethyl-pteridine formic acid], for which the EC50 (in general, the concentration that produces a half-maximal response) lay in the range of 0.1 to 0.5 µM. Next, `Cc1nc2nc(N3C[C@@H](C)O[C@@H](c4cnn(C5CC5)c4)C3)nc(C3CCCCC3)c2cc1C#N` [Example 35, 4-cyclohexyl-2-[(2S,6R)-2-(1-cyclopropylpyrazol-4-yl)-6-methyl-morpholin-4-yl]-7-methyl-pyrido[2,3-d]pyrimidine-6-carbonitrile]: under 0.1 µM; `Cc1nc2nc(N3C[C@@H](C)O[C@@H](c4cnn(C5CC5)c4)C3)nc(C3CCC3)c2cc1C#N` [Example 42, 4-cyclobutyl-2-((2S,6R)-2-(1-cyclopropyl-1H-pyrazol-4-yl)-6-methylmorpholino)-7-methylpyrido[2,3-d]pyrimidine-6-carbonitrile]: 0.1 to 0.5 µM.

As to `Cc1nc2ccc(C3CC(c4nc(-c5ccc(F)cc5F)c5nc(C)c(C)nc5n4)CCO3)cc2o1` (centres unmarked) [Example 113, 6-[4-[4-(2,4-difluorophenyl)-6,7-dimethyl-pteridin-2-yl]tetrahydropyran-2-yl]-2-methyl-1,3-benzoxazole], the EC50 is under 0.1 µM.

For the molecule `Cc1cc(-c2cc3c(-c4ccc(F)cc4F)nc(N4C[C@@H](C)O[C@@H](c5cnn(C6CC6)c5)C4)nc3nc2C)on1` [Example 11, (2S,6R)-2-(1-cyclopropylpyrazol-4-yl)-4-[4-(2,4-difluorophenyl)-7-methyl-6-(3-methylisoxazol-5-yl)pyrido[2,3-d]pyrimidin-2-yl]-6-methyl-morpholine], the EC50 is under 0.1 µM. Next, `Cc1nc2nc(C3CCOC(c4cnnc(N(C)C)c4)C3)nc(C34CC(C(F)(F)F)(C3)C4)c2nc1C` (racemic) [Example 130, N,N-dimethyl-5-[rac-trans-4-[6,7-dimethyl-4-[3-(trifluoromethyl)-1-bicyclo[1.1.1]pentanyl]pteridin-2-yl]tetrahydropyran-2-yl]pyridazin-3-amine]: 0.1 to 0.5 µM; `Cc1nc2nc(N3C[C@@H](C)O[C@@H](c4cnn(C5CC5)c4)C3)nc(-c3ccncc3F)c2nc1C` [Example 96, (2S,6R)-2-(1-cyclopropylpyrazol-4-yl)-4-[4-(3-fluoro-4-pyridyl)-6,7-dimethylpteridin-2-yl]-6-methyl-morpholine]: 0.1 to 0.5 µM; `Cc1cc2cc(C3CC(c4nc(-c5ccc(F)cc5F)c5nc(C)c(C)nc5n4)CCO3)ccn2n1` (centres unmarked) [Example 116, 4-(2,4-difluorophenyl)-6,7-dimethyl-2-[2-(2-methylpyrazolo-[1,5-a]pyridin-5-yl)tetrahydropyran-4-yl]pteridine]: under 0.1 µM. As for `Cc1nc2nc([C@H]3CCO[C@@H](c4cnn(C5CC5)c4)C3)nc(C34CC(C(F)(F)F)(C3)C4)c2cc1-c1cn(C)nn1` [Example 28, 2-((2R,4S)-2-(1-cyclopropyl-1H-pyrazol-4-yl)tetrahydro-2H-pyran-4-yl)-7-methyl-6-(1-methyl-1H-1,2,3-triazol-4-yl)-4-(3-(trifluoromethyl)-bicyclo[1.1.1]pentan-1-yl)pyrido[2,3-d]pyrimidine], the figure is over 0.5 µM; as for `Cc1nc2nc(N3C[C@@H](C)O[C@@H](c4cnn(C5CC5)c4)C3)nc(C34CC(C(F)(F)F)(C3)C4)c2nc1C1CN(C(=O)OC(C)(C)C)C1` [Example 86, tert-butyl 3-[2-[(2S,6R)-2-(1-cyclopropylpyrazol-4-yl)-6-methyl-morpholin-4-yl]-7-methyl-4-[3-(trifluoromethyl)-1-bicyclo[1.1.1]pentanyl]pteridin-6-yl]azetidine-1-carboxylate], over 0.5 µM; as for `Cc1nc2nc([C@H]3CCO[C@@H](c4cnn(C5CC5)c4)C3)nc(C34CC(C(F)(F)F)(C3)C4)c2cc1-c1cnn(C)c1` [Example 26, 2-((2R,4S)-2-(1-cyclopropyl-1H-pyrazol-4-yl)tetrahydro-2H-pyran-4-yl)-7-methyl-6-(1-methyl-1H-pyrazol-4-yl)-4-(3-(trifluoromethyl)bicyclo[1.1.1]pentan-1-yl)pyrido[2,3-d]pyrimidine], under 0.1 µM. With `Cc1nc2nc(N3C[C@@H](C)O[C@@H](c4cnn(C5CC5)c4)C3)nc(-c3ccc(F)cc3F)c2cc1C(=O)N(C)C` [Example 2, 2-((2S,6R)-2-(1-cyclopropyl-1H-pyrazol-4-yl)-6-methylmorpholino)-4-(2,4-difluorophenyl)-N,N-7-trimethylpyrido[2,3-d]pyrimidine-6-carboxamide], the EC50 was over 0.5 µM.

`Cc1nnc(-c2cc3c(-c4ccc(F)cc4F)nc(N4C[C@@H](C)O[C@@H](c5cnn(C6CC6)c5)C4)nc3nc2C)o1` [Example 12, (2S,6R)-2-(1-cyclopropylpyrazol-4-yl)-4-[4-(2,4-difluorophenyl)-7-methyl-6-(5-methyl-1,3,4-oxadiazol-2-yl)pyrido[2,3-d]pyrimidin-2-yl]-6-methyl-morpholine]: the EC50 is under 0.1 µM. For the molecule `Cc1nnc(-c2cc3c(C45CC(C(F)(F)F)(C4)C5)nc([C@H]4CCO[C@@H](c5cnn(C6CC6)c5)C4)nc3nc2C)o1` [Example 23, 2-(2-((2R,4S)-2-(1-cyclopropyl-1H-pyrazol-4-yl)tetrahydro-2H-pyran-4-yl)-7-methyl-4-(3-(trifluoromethyl)bicyclo[1.1.1]pentan-1-yl)pyrido[2,3-d]pyrimidin-6-yl)-5-methyl-1,3,4-oxadiazole], the concentration for a half-maximal effect (EC50) is under 0.1 µM. As for `CC1Cc2c(nc([C@H]3CCO[C@@H](c4cnn(C5CC5)c4)C3)nc2-c2ccc(C(F)(F)F)cc2F)C(=O)N1C` (stereo partly drawn) [Example 138, 2-[(2R,4S)-2-(1-cyclopropylpyrazol-4-yl)tetrahydropyran-4-yl]-4-[2-fluoro-4-(trifluoromethyl)phenyl]-6,7-dimethyl-5,6-dihydropyrido[3,4-d]pyrimidin-8-one formic acid], the figure is over 0.5 µM; as for `Cc1noc(-c2cc3c(C4CCCCC4)nc(N4C[C@@H](C)O[C@@H](c5cnn(C6CC6)c5)C4)nc3nc2C)n1` [Example 33, (2S,6R)-4-[4-cyclohexyl-7-methyl-6-(3-methyl-1,2,4-oxadiazol-5-yl)-pyrido[2,3-d]pyrimidin-2-yl]-2-(1-cyclopropylpyrazol-4-yl)-6-methyl-morpholine], under 0.1 µM. As to `Cc1nc2nc(C3CCOC(c4ccn5nccc5c4)C3)nc(-c3ccc(F)cc3F)c2nc1C` (centres unmarked) [Example 93, 4-(2,4-difluorophenyl)-6,7-dimethyl-2-(2-pyrazolo[1,5-a]pyridin-5-yltetrahydropyran-4-yl)pteridine], the EC50 was under 0.1 µM. Next, `Cc1nc2nc(C3CCOC(c4ccc5nccn5c4)C3)nc(-c3ccc(F)cc3F)c2nc1C` (centres unmarked) [Example 94, 4-(2,4-difluorophenyl)-2-(2-imidazo[1,2-a]pyridin-6-yltetrahydropyran-4-yl)-6,7-dimethyl-pteridine]: under 0.1 µM. For the molecule `Cc1nc2nc([C@H]3CCO[C@@H](c4cnn(C5CC5)c4)C3)nc(C34CC(C(F)(F)F)(C3)C4)c2cc1[S+](C)[O-]` (stereo partly drawn) [Example 32, 2-[(2R,4S)-2-(1-cyclopropylpyrazol-4-yl)tetrahydropyran-4-yl]-7-methyl-6-methylsulfinyl-4-[3-(trifluoromethyl)-1-bicyclo[1.1.1]pentanyl]pyrido[2,3-d]pyrimidine], the EC50 is under 0.1 µM. On to `Cc1nc2c(C34CC(C(F)(F)F)(C3)C4)nc(N3C[C@@H](C)O[C@@H](c4cnn(C5CC5)c4)C3)nc2c(=O)n1C` [Example 127, 6-[(2S,6R)-2-(1-cyclopropylpyrazol-4-yl)-6-methyl-morpholin-4-yl]-2,3-dimethyl-8-[3-(trifluoromethyl)-1-bicyclo[1.1.1]pentanyl]pyrimido[5,4-d]pyrimidin-4-one], for which the EC50 was under 0.1 µM. Next, `Cc1nc2nc([C@H]3CCO[C@@H](c4cnn(C5CC5)c4)C3)nc(C34CC(C(F)(F)F)(C3)C4)c2cc1F` [Example 24, 2-[(2R,4S)-2-(1-cyclopropylpyrazol-4-yl)tetrahydropyran-4-yl]-6-fluoro-7-methyl-4-[3-(trifluoromethyl)-1-bicyclo[1.1.1]pentanyl]-pyrido[2,3-d]pyrimidine]: under 0.1 µM; `Cc1nc2nc(N3C[C@@H](C)O[C@@H](c4ccnc(N(C)C)c4)C3)nc(C34CC(C(F)(F)F)(C3)C4)c2nc1C` (racemic) [Example 142, N,N-dimethyl-4-[rac-(2S,6R)-4-[6,7-dimethyl-4-[3-(trifluoromethyl)-1-bicyclo[1.1.1]pentanyl]pteridin-2-yl]-6-methyl-morpholin-2-yl]pyridin-2-amine]: 0.1 to 0.5 µM. On to `CO/N=C(\C)c1cc2c(-c3ccc(F)cc3F)nc(N3C[C@@H](C)O[C@@H](c4cnn(C5CC5)c4)C3)nc2nc1C` [Example 5, 1-[2-[(2S,6R)-2-(1-cyclopropylpyrazol-4-yl)-6-methyl-morpholin-4-yl]-4-(2,4-difluorophenyl)-7-methyl-pyrido[2,3-d]pyrimidin-6-yl]-N-methoxy-ethanimine], for which the EC50 is under 0.1 µM.

For the origin of these results see patent publication US20260327225A1, “HETEROCYCLIC COMPOUNDS AS TRIGGERING RECEPTOR EXPRESSED ON MYELOID CELLS 2 AGONISTS AND METHODS OF USE” (VIGIL NEUROSCIENCE, INC., priority 2023, published 2026).
